Data from patent publication US20240293314A1, “COMPOSITION FOR PARTICLE-MEDIATED TRANSPORT OF A DISSOLVED ACTIVE AGENT INTO HAIR FOLLICLES” (Charité – Universitätmedizin Berlin, priority 2021, published 2024).

Key:
[1] = format: in vitro ADME, porcine; conditions: pig, 1 h, 0.003 % w/w
Description: Three particle-free and three particle-containing formulations were prepared, each containing 0.003% F (dissolved in dispersion medium), and the penetration of F into hair follicles (HF) was studied.
Fluorescein (0.003% w/w) was added to dispersion media that contained no particles (water, TPGS-solution (1% w/w) or ethanol (96% v/v)) and was added to dispersion media that contained particles (1. curcumin nanocrystals (5% w/w dispersed in TPGS solution (1% w/w)—particle size was 257 nm, polydispersity index 0.26 determined by photon correlation spectroscopy); 2. quercetin nanocrystals (5% w/w dispersed in TPGS solution (1% w/w)—particle size was 580 nm, polydispersity index 0.36, determined by photon correlation spectroscopy); 3. Lipid nanoparticles (10% w/w dispersed in TPGS solution (1% w/w)—particle size was 195 nm, polydispersity index 0.09, determined by photon correlation spectroscopy).
The formulations (50 μl on a skin areal of 4 cm^2) were applied on fresh porcine ears (ventral side, massage for 60 s, penetration time 1 h at 32° C.). Skin biopsies (Ø 15 mm) were obtained from the treated skin areas from which skin sections (40 μm, 100 sections/biopsy) were prepared. The skin sections and the hair follicle sections were analyzed by epifluorescence microscopy. Images were taken and the penetration depth of the fluorescein was directly measured (n=3). […]

[2] = format: in vitro ADME
Text: FIG. 1: Confocal microscopic image of a skin section with hair follicle after topical application of fluorescein natrium salt (green fluorescent dye) dissolved in dispersion medium together with a caffeine nanosuspension.
Particle-containing formulations were applied as dispersions (particles in a liquid or semi-solid dispersion medium). Besides the particles, the dispersion medium also contained dissolved molecules, name the fluorescent molecule fluorescein, which is an organic compound soluble in water and alcohol.

O=C1OC2(c3ccc(O)cc3Oc3cc(O)ccc32)c2ccccc21 [F, Fluorescein]
penetration depth with particles compared to the particle-free formulations [1]: > 160%
penetration into the hair follicles [2]: no efficient penetration into the hair follicles
